Molecular target: T1, tissue factor:factor VIIa complex (tissue factor on human bladder carcinoma J-82 cells) (Homo sapiens, UniProt P08709)
T1 construct: endogenous in cells; host or cells: J-82 (ATCC HTB-1) human bladder carcinoma cells: source of the tissue factor only
Assay: Factor X activation chromogenic substrate assay (J-82 cells as source of tissue factor, Spectrozyme Xa)
Format: biochemical
Settings: PPACK 1 μM; positive control; 30 min at room temperature, OD-405; read-out: Percent Inhibition of F.X Activation
Text: The second screening was used to evaluate the ability of isolated antibodies to inhibit tissue factor catalyzed factor VII activity as reflected by the conversion of factor X to factor Xa. The human bladder carcinoma cell line J-82 (ATCC HTB-1) expresses cell surface-associated tissue factor and is used as the source of tissue factor and phospholipids. A chromogenic substrate for factor Xa is used, which develops color proportional to the amount of factor VIIa activity. Conversely, color is not developed if factor VII activity is blocked. The assay is performed as follows. J-82 cells are suspended in tris-buffered saline at a concentration of 1×10^5 cells per mL. Fifty microliters of cell suspension is added to individual wells of a 96-well polystyrene microliter plate. Fifty microliters of hybridoma culture supernatant diluted at least 1:10 is added to appropriate wells followed by 25 μL of 20 mM CaCl2. Negative control is irrelevant hybridoma culture supernatant (such as anti-tPA supernatant) and positive control is 1 μM PPACK (d-phenylalanine-proline-arginine-chloromethylkefone). Twenty-five microliters of 90 nM factor X and 50 λL of substrate Spectrozyme Xa are added to each well. Following thirty minute incubation at room temperature, OD-405 is determined. […]

T1 sequence (P08709 213-466 limits assumed): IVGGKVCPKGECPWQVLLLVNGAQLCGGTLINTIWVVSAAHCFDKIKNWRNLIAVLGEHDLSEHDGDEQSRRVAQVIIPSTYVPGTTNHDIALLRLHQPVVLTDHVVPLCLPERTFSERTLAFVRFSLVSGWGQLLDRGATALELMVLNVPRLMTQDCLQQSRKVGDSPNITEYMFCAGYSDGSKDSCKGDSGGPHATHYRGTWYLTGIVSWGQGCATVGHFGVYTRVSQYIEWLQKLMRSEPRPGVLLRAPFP
T1 sequence (P08709 61-212 limits assumed): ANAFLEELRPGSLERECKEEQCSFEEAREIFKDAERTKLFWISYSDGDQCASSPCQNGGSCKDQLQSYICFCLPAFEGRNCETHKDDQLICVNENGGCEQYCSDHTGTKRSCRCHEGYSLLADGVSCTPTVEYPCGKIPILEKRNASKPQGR
T1 sequence (P13726 33-295 partner): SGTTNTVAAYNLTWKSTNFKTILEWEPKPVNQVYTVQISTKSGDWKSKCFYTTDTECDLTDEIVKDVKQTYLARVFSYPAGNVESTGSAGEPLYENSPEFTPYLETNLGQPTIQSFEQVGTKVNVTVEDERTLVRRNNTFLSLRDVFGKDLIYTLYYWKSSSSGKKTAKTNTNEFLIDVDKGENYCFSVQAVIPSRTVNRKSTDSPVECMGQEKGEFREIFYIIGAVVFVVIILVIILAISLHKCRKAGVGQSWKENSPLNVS

For `N=C(N)NCCC[C@H](NC(=O)[C@@H]1CCCN1C(=O)[C@H](N)Cc1ccccc1)C(=O)CCl` [PPACK, d-phenylalanine-proline-arginine-chloromethylkefone], the inhibition at 1 µM was 100%.

— patent US5506134A, “Hypridoma and monoclonal antibody which inhibits blood coagulation tissue factor/factor VIIa complex” (Corvas International, Inc., priority 1991, dated 1996)
